Experimental data: ChEMBL document CHEMBL2311376, “Synthesis and antibacterial evaluation of a novel tricyclic oxaborole-fused fluoroquinolone” (2013)
Converted amounts (≈) assume the structure as drawn.

How the values were obtained:
Format in all cases: functional
Escherichia coli [1] = test: Antimicrobial activity against Escherichia coli K-12 containing delta-lacU169 mutant by microbroth dilution assay
Escherichia coli [2] = test: Antimicrobial activity against Escherichia coli K-12 containing delta-lacU169 tolC::Tn10 gyrA D87Y mutant by microbroth dilution assay
Escherichia coli [3] = test: Antimicrobial activity against Escherichia coli K-12 containing delta-lacU169 tolC::Tn10 mutant by microbroth dilution assay
Escherichia coli [4] = test: Antimicrobial activity against Escherichia coli K-12 containing delta-lacU169 tolC::Tn10 gyrA S83L mutant by microbroth dilution assay
Staphylococcus aureus = test: Antimicrobial activity against Staphylococcus aureus ATCC 29213 by microbroth dilution assay

| SMILES | MIC (Escherichia coli [1]) [µg/mL] | MIC (Escherichia coli [2]) [µg/mL] | MIC (Escherichia coli [3]) [µg/mL] | MIC (Escherichia coli [4]) [µg/mL] | MIC (Staphylococcus aureus) [µg/mL] |
| --- | --- | --- | --- | --- | --- |
| O=c1c2c(n(C3CC3)c3cc(N4CCNCC4)c(F)cc13)COB2O | 128 (≈ 373 µM) | 32 (≈ 93.2 µM) | 16 (≈ 46.6 µM) | 64 (≈ 186 µM) | 128 (≈ 373 µM) |
| CC(C)(C)OC(=O)N1CCN(c2cc3c(cc2F)c(=O)c2c(n3C3CC3)COB2O)CC1 | > 256 | > 256 | > 256 | > 256 | > 256 |
| O=c1c(Br)c(CO)n(C2CC2)c2cc(N3CCNCC3)c(F)cc12 | > 256 | > 256 | 128 (≈ 323 µM) | 256 (≈ 646 µM) | > 256 |
| O=c1cc(CO)n(C2CC2)c2cc(N3CCNCC3)c(F)cc12 | > 256 | > 256 | > 256 | > 256 | > 256 |
